The values below come from patent publication US5688799A, “9-Hydroxy-pyrido[1,2-a]pyrimidin-4-one ether derivatives” (Janssen Pharmaceutica N.V., priority 1993, dated 1997).

The structures appear in SMILES notation. Where two headings read alike, the source gives them in different places. Some results are limits rather than exact numbers.

The subject of assay [1] is serotonin (peripheral symptoms, hyperaemia, elicited with serotonin or tryptamine). Description: combined APO, TRY, NOR test in rats: tryptamine (TRY) hyperaemia. The following applies: Rattus norvegicus. The class given is in vivo.
Assay [2] relates to dopamine (symptoms elicited with the dopamine agonist apomorphine). Put plainly: combined apomorphine (APO), tryptamine (TRY) and norepinephrine (NOR) test in rats: apomorphine (APO). To be noted: Rattus norvegicus, read-out: APO ED50. It counts as in vivo.
The subject of assay [3] is serotonin (central symptoms, convulsions, elicited with serotonin or tryptamine). Description: combined APO, TRY, NOR test in rats: tryptamine (TRY) convulsions. The following applies: Rattus norvegicus, read-out: TRY convulsions ED50. The class given is in vivo.
Assay [4] concerns norepinephrine (death upon administration of the α2 -agonist norepinephrine). Description: animal or person. The class given is in vivo, rats. To be noted: Rattus norvegicus, read-out: NOR ED50.
[5] abbreviates: combined test in rats, apomorphine.
[6] abbreviates: combined test in rats, tryptamine, central (convulsions).

In general, ED50 refers to the midpoint of the dose-response relation. Consider `COC1CCCn2c1nc(C)c(CCN1CCC(c3noc4cc(F)ccc34)CC1)c2=O` (racemic) [Compound 7, (±)-3-[2-[4-(6-fluoro-1,2-benzisoxazol-3-yl)-1-piperidinyl]ethyl]-6,7,8,9-tetrahydro-9-methoxy-2-methyl-4H-pyrido[1,2-a]pyrimidin-4-one], for which the values for the 50% effective dose (ED50) in assay [1], in assay [2] (setting [5]) and in assay [3] (setting [6]) were 0.00125 mg/kg, 0.02 mg/kg and 0.02 mg/kg, respectively.
For `COc1cccn2c(=O)c(CCN3CCC(c4noc5cc(F)ccc45)CC3)c(C)nc12` [Compound 1, 3-[2-[4-(6-fluoro-1,2-benzisoxazol-3-yl)-1-piperidinyl]ethyl]-9-methoxy-2-methyl-4H-pyrido[1,2-a]pyrimidin-4-one], the ED50 in assay [1] is 0.0025 mg/kg; in assay [2] (setting [5]) it was 0.31 mg/kg; in assay [3] (setting [6]), 0.16 mg/kg.
Turning to `CCOCOc1cccn2c(=O)c(CCN3CCC(c4noc5cc(F)ccc45)CC3)c(C)nc12` [Compound 2, 9-(ethoxymethoxy)-3-[2-[4-(6-fluoro-1,2-benzisoxazol-3-yl)-1-piperidinyl]ethyl]-2-methyl-4H-pyrido[1,2-a]pyrimidin-4-one], the ED50 was determined as 0.01 mg/kg in assay [1], 1.25 mg/kg in assay [2], 1.25 mg/kg in assay [3] and 1.25 mg/kg in assay [4].
With `CCCCCCCCCCCCOc1cccn2c(=O)c(CCN3CCC(c4noc5cc(F)ccc45)CC3)c(C)nc12` [Compound 3], the ED50 is 1.25 mg/kg in assay [1], above 10 mg/kg in assay [2] (setting [5]) and above 10 mg/kg in assay [3] (setting [6]).
In the case of `C=CCOc1cccn2c(=O)c(CCN3CCC(c4noc5cc(F)ccc45)CC3)c(C)nc12` [Compound 4, 3-[2-[4-(6-fluoro-1,2-benzisoxazol-3yl)-1-piperidinyl]ethyl]-2-methyl-9-(2-propenyloxy)-4H-pyrido[1,2-a]pyrimidin-4-one], the ED50 in assay [1] amounted to 0.005 mg/kg; in assay [2] (setting [5]), 0.31 mg/kg; in assay [3] (setting [6]), 0.31 mg/kg; in assay [4], 0.16 mg/kg.
Regarding `Cc1nc2c(OCCCC#N)cccn2c(=O)c1CCN1CCC(c2noc3cc(F)ccc23)CC1` [Compound 5], the ED50 in assay [1] was determined as 0.005 mg/kg; in assay [2], 1.25 mg/kg; in assay [3], 1.25 mg/kg; in assay [4] it was 1.25 mg/kg.
Consider `C#CCOc1cccn2c(=O)c(CCN3CCC(c4noc5cc(F)ccc45)CC3)c(C)nc12` [Compound 6, 3-[2-[4-(6-fluoro-1,2-benzisoxazol-3-yl)-1-piperidinyl]ethyl]-2-methyl-9-(2-propynyloxy)-4H-pyrido[1,2-a]pyrimidin-4-one], for which the 50% effective dose (ED50) in assay [2] (setting [5]), in assay [3] (setting [6]) and in assay [4] was below 0.63 mg/kg throughout.
Regarding `CCOCOC1CCCn2c1nc(C)c(CCN1CCC(c3noc4cc(F)ccc34)CC1)c2=O` (stereo not drawn) [Compound 8], the ED50 in assay [1] was determined as 0.00125 mg/kg; in assay [2] (setting [5]) it was 0.31 mg/kg; in assay [3] (setting [6]), 0.16 mg/kg.
As to `CCCCCCCCCCCCOC1CCCn2c1nc(C)c(CCN1CCC(c3noc4cc(F)ccc34)CC1)c2=O` (stereo not drawn) [Compound 9], the ED50 stood at 0.01 mg/kg in assay [1], 10 mg/kg in assay [2] (setting [5]), 1.25 mg/kg in assay [3] (setting [6]) and 2.5 mg/kg in assay [4].
Regarding `CCCOC1CCCn2c1nc(C)c(CCN1CCC(c3noc4cc(F)ccc34)CC1)c2=O` (stereo not drawn) [Compound 10, 3-[2-[4-(6-fluoro-1,2-benzisoxazol-3-yl)-1-piperidinyl]ethyl]-6,7,8,9-tetrahydro-2-methyl-9-propoxy-4H-pyrido[1,2-a]pyrimidin-4-one], the 50% effective dose (ED50) is 0.002 mg/kg in assay [1], 0.08 mg/kg in assay [2] (setting [5]), 0.08 mg/kg in assay [3] (setting [6]) and 0.16 mg/kg in assay [4].
Regarding `COCCOC1CCCn2c1nc(C)c(CCN1CCC(c3noc4cc(F)ccc34)CC1)c2=O` (stereo not drawn) [Compound 11], the 50% effective dose (ED50) was 0.00125 mg/kg in assay [1], 0.31 mg/kg in assay [2] (setting [5]), 0.63 mg/kg in assay [3] (setting [6]) and 1.25 mg/kg in assay [4].
